Results from article PMC6222509, “Dibasic Derivatives of Phenylcarbamic Acid against Mycobacterial Strains: Old Drugs and New Tricks?” (Molecules : A Journal of Synthetic Chemistry and Natural …, 2018).
Converted amounts (≈) assume the structure as drawn. Like-named read-outs stand apart in the source and are kept apart here.

Legend:
[1] = surface tension, drop count method, Traube stalagmometer; assay type: physicochemical; settings: aqueous solution c = 2.0 × 10^−3 M, 21 °C; water γ = 0.07259 N/m
Experimental: Surface tension (relative surface activity; γ) of aqueous solutions of the compounds 1a–p (c = 2.0 × 10^−3 M) was determined by a drop count technique using a Traube stalagmometer. All evaluated substances were able to decrease surface tension of water (γ = 0.07259 N/m) at 21 °C.
Surface tension (relative surface activity; γ) of the derivatives 1a–p was determined by a drop count method using a glassy Traube stalagmometer (Kavalier Glass, Prague, Czech Republic). Number of drops of compounds’ and reference solutions were counted between upper and lower marks of the stalagmometer. Aqueous solutions of the molecules 1a–p were prepared with distilled, deionized water (c = 2.0 × 10^−3 M). […] The drops were allowed to form at constant temperature 21 °C. The experimental procedure was described in a paper. Current measurements were done in six replicates and average γ values (in N/m units) were reported (Table 1).

[2] = tested on: M. kansasii DSM 44162 (MK DSM); assay: in vitro antimycobacterial MIC, broth dilution micromethod in Middlebrook 7H9; assay type: cell-based; settings: Mycobacterium kansasii, DSM 44162 / DSM 7, 168 h
[3] = lipophilicity by isocratic RP-HPLC (log k, k, log kw, S); assay type: physicochemical; settings: for log kw: extrapolated to 100% water from log k versus ϕM; for S (slope): slope of log k versus ϕM regression
From the text: Octadecyl-functionalized silica gel was currently used as a stationary phase (SPh) and a […] of two solvents at different volume ratios modified retention properties of the SPh. Liquid binary mixtures of methanol (MeOH) with water were employed as mobile phases (MPhs) in the isocratic RP-HPLC. The MeOH modifier was preferred because of similarity of both observed and extrapolated lipophilicity parameters with the ones determined in the octan-1-ol/water partition system, considering also sensitivity to H-bond donor properties of investigated compounds [41].
The modifier was applied in different volume concentrations, which varied from […] (v/v) with 5% increments. This interval was chosen due to very high lipophilicity of investigated salts. Practically, lower volume concentration of MeOH, i.e., less than 85% (v/v) in used MPhs, caused uncertainty of retention times (tr) due to notable peaks broadening, especially within subsets 1i–l and 1m–p. […] The highest tr parameters were found for the molecules 1k (tr = 47.108 min) and 1l (tr = 70.012 min) in the MPh containing 85% proportion (v/v) of MeOH (Table 2).
According to the authors’ opinions based on systematic scientific literature survey, a current research paper was the first, which aimed the log kw parameters of 2-/3-alkoxyphenylcarbamic acid derivatives containing two centers of protonation. The log kw values were extrapolated from intercepts of a relationship between log k and volume fraction of the MPh modifier (ϕM) using the Snyder–Soczewiński linear solvent strength model. The relationship was justified by R > 0.9900, Adj. R^2 > 0.9750 as well as F > 180.00 for calculation of particular log kw parameters (Table 3).
The HPLC separation module Waters e2695 equipped with a Waters 2996 PDA Detector (Waters Corp., Milford, MA, USA) and chromatographic column Symmetry C18 × 5 μm, 4.6 × 250 mm, Part No. W21751W016 (Waters Corp.) were used for estimation of lipophilic properties of the compounds 1a–p at 21 °C.
Isocratic elution was carried out using mobile phases consisting of methanol p.a. (MeOH; Honeywell, Paris, France) and purified water in various volume ratios (80:20, 85:15, 90:10, 95:5 (v/v) and pure MeOH, respectively). Distilled water (CentralChem, Bratislava, Slovak Republic) was purified by the Aquinity2 P10 ultra-pure water system for production of ultra-pure water with an integrated 10 L permeate tank (membraPure, Hennigsdorf, Germany).
Total flow of the column was 1.0 mL/min, injection volume was 4 μL and column temperature was set to 40 °C. The detection wavelengths varying from 236 nm to 238 nm were chosen for current experimental procedures.
Lipophilicity of the compounds 1a–p was determined by reversed-phase high-performance liquid chromatography (RP-HPLC). Methanol (MeOH)/water mobile phases with varying volume ratio of the organic modifier and water (80:20, 85:15, 90:10, 95:5 (v/v) and pure MeOH, respectively) were chosen.
A methanolic solution of potassium iodine was used for dead time (td) determination. Retention factors (capacity factors; k) were calculated according to Equation (17):k = (tr− td)/td(17) where tr was retention time of a solute (in min), the td parameter denoted dead time of potassium iodine, an unretained analyte (in min).
The observed retention (tr) and dead (td) times were means of three independent determinations. Average td values of potassium iodine in used MPhs were as follows: 2.237 min (MeOH/water ratio (v/v) was 80:20), 2.245 min (85:15), 2.245 min (90:10), 2.228 min (95:5) and 2.210 min (pure MeOH), respectively. […]

[4] = tested on: M. marinum CAMP 5644 (MM); assay: in vitro antimycobacterial MIC, broth dilution micromethod in Middlebrook 7H9; assay type: cell-based, Mycobacterium marinum
[5] = tested on: Mycobacterium tuberculosis CNCTC My 331/88 (identical with H37Rv and ATCC 2794; MTv H37Rv); assay: in vitro antimycobacterial MIC, dilution micromethod in Šula's semisynthetic medium; assay type: cell-based; settings: Mycobacterium tuberculosis
[6] = tested on: M. smegmatis ATCC 700084 (MS); assay: in vitro antimycobacterial MIC, broth dilution micromethod in Middlebrook 7H9; assay type: cell-based, Mycobacterium smegmatis; settings: Mycolicibacterium smegmatis, ATCC700084, 72 h
[7] = tested on: M. avium CNCTC My 330/80 (identical with ATCC 25291; MA 330/80); assay: in vitro antimycobacterial MIC, dilution micromethod in Šula's semisynthetic medium; assay type: cell-based, Mycobacterium avium; settings: Mycobacterium avium
[8] = tested on: M. kansasii CNCTC My 235/80 (identical with ATCC 12478; MK 235/80); assay: as above; assay type: cell-based, Mycobacterium kansasii; settings: Mycobacterium kansasii
[9] = read-out: MIC MK DSM 7-d, 7-day cultivation, 37 °C
[10] = mobile phase MeOH/water 80:20 (v/v)
[11] = mobile phase MeOH/water 85:15 (v/v)
[12] = mobile phase MeOH/water 90:10 (v/v)
[13] = mobile phase MeOH/water 95:5 (v/v)
[14] = Mycobacterium marinum, 504 h, read-out: MIC MM 21-d, 21-day cultivation, 28 °C
[15] = 336 h, 14-day cultivation, read-out: MIC MTv H37Rv 14-d
[16] = 504 h, 21-day cultivation, read-out: MIC MTv H37Rv 21-d
[17] = read-out: MIC MS 3-d, 3-day cultivation, 37 °C
[18] = ATCC25291, 336 h, read-out: MIC MA 330/80 14-d
[19] = ATCC25291, 504 h, read-out: MIC MA 330/80 21-d
[20] = ATCC12478, 168 h, read-out: MIC MK 235/80 7-d
[21] = ATCC12478, 336 h, read-out: MIC MK 235/80 14-d
[22] = ATCC12478, 504 h, read-out: MIC MK 235/80 21-d

SMILES	surface tension γ (relative surface activity) [1] [N/m]	MIC [2, 9] [µM]	log kw [3]	k (retention factor) [3, 10]	log k [3, 10]	k (retention factor) [3, 11]	log k [3, 11]	k (retention factor) [3, 12]	log k [3, 12]	k (retention factor) [3, 13]	log k [3, 13]	k (retention factor) ([3]; mobile phase pure MeOH)	log k ([3]; mobile phase pure MeOH)	S (slope) [3]	MIC [4, 14] [µM]	MIC [5, 15] [µM]	MIC [5, 16] [µM]	MIC [6, 17] [µM]	MIC [7, 18] [µM]	MIC [7, 19] [µM]	other results
CCCCCCOc1cccc(NC(=O)OC(CN(CCC)CCC)CN2CCCCCC2)c1.Cl.Cl (stereo not shown) [1o, 1-[2-[({[3-(hexyloxy)phenyl]amino}-carbonyl)oxy]-3-(dipropylammonio)propyl]azepanium dichloride]	0.05925	3.6	5.6569	12.0420	1.0807	5.0804	0.7059	3.2915	0.5174	1.2868	0.1095	0.8674	−0.0618	5.7628	7.3	8	16	7.3	16	16	MIC [8, 20]: 8 µM; MIC [8, 21]: 16 µM; MIC [8, 22]: 16 µM
CCCCCCCOc1ccccc1NC(=O)OC(CN(CCC)CCC)CN1CCCC1.Cl.Cl (stereo not shown) [1d, 1-[2-[({[2-(heptyl-oxy)phenyl]amino}carbonyl)oxy]-3-(dipropylammonio)propyl]pyrrolidinium dichloride]	0.05985	6.2	4.9487	12.8588	1.1092	7.7304	0.8882	5.0373	0.7022	2.5421	0.4052	1.4365	0.1573	4.7736	12.5	8	8	24.9	32	32	MIC [8, 20]: 16 µM; MIC [8, 21]: 16 µM; MIC [8, 22]: 32 µM
CCCCCOc1ccccc1NC(=O)OC(CN(CCC)CCC)CN1CCCCCC1.O=C(O)C(=O)O (stereo not shown) [1j, 1-[2-[({[2-(Pentyloxy)phenyl]amino}carbonyl)oxy]-3-(dipropylammonio)propyl]-azepanium oxalate]	0.06206	50	4.8466	12.1983	1.0863	7.9086	0.8981	4.8173	0.6828	2.8242	0.4509	1.3960	0.1449	4.6600	50	16	32	6.2	62.5	125	MIC [8, 20]: 16 µM; MIC [8, 21]: 32 µM; MIC [8, 22]: 62.5 µM
CCCCCCCOc1cccc(NC(=O)OC(CN(CCC)CCC)CN2CCCC2)c1.Cl.Cl (stereo not shown) [1h, 1-[2-[({[3-(heptyloxy)phenyl]amino}carbonyl)oxy]-3-(dipropylammonio)propyl]pyrrolidinium dichloride]	0.05786	1.9	5.5384	8.9557	0.9521	5.1988	0.7159	2.8609	0.4565	1.6188	0.2092	0.6091	−0.2153	5.6830	< 3.7	4	8	15	8	16	MIC ([4]; 21-day cultivation, 28 °C, read-out: MIC MM 21-d): <3.7 µM; MIC ([7]; ATCC25291, read-out: MIC MA 330/80): 16 µM; MIC [8, 20]: 8 µM; MIC [8, 21]: 8 µM; MIC [8, 22]: 8 µM; MIC ([8]; ATCC12478, read-out: MIC MK 235/80): 8 µM
CCCCCOc1ccccc1NC(=O)OC(CN(CCC)CCC)CN1CCCC1 (stereo not shown) [1b]	0.06366	–	4.0454	6.6904	0.8254	4.6302	0.6656	3.2092	0.5064	1.9235	0.2841	1.0479	0.0203	3.9834	–	16 (≈ 6.94 µg/mL)	32 (≈ 13.9 µg/mL)	–	–	–	MIC ([2]; 7-day cultivation, 37 °C, read-out: MIC MK DSM 7-d): 26.1 µM (≈ 11.3 µg/mL); MIC ([4]; Mycobacterium marinum, 504 h, 21-day cultivation, 28 °C, read-out: MIC MM 21-d): 52 µM (≈ 22.5 µg/mL); MIC ([6]; 3-day cultivation, 37 °C, read-out: MIC MS 3-d): 104 µM (≈ 45.1 µg/mL); MIC ([7]; ATCC25291, 336 h, 14-day cultivation, read-out: MIC MA 330/80 14-d): 62.5 µM (≈ 27.1 µg/mL); MIC ([7]; ATCC25291, 504 h, 21-day cultivation, read-out: MIC MA 330/80 21-d): 125 µM (≈ 54.2 µg/mL); MIC ([8]; ATCC12478, 168 h, 7-day cultivation, read-out: MIC MK 235/80 7-d): 32 µM (≈ 13.9 µg/mL); MIC ([8]; ATCC12478, 336 h, 14-day cultivation, read-out: MIC MK 235/80 14-d): 32 µM (≈ 13.9 µg/mL); MIC ([8]; ATCC12478, 504 h, 21-day cultivation, read-out: MIC MK 235/80 21-d): 62.5 µM (≈ 27.1 µg/mL)
